Publication PMC11915372, “Identification of a Series Containing a Pentafluorophenyl Moiety That Targets Pks13 to Inhibit Growth of Mycobacterium tuberculosis” (ACS Infectious Diseases, 2025)
Converted amounts (≈) assume the structure as drawn. Like-named read-outs stand apart in the source and are kept apart here.

Legend:
[1] = test system: M. tuberculosis (H37Rv); test: microbe, parasite or virus in culture; type: cell-based, Mycobacterium tuberculosis
[2] = physchem; type: physicochemical
[3] = type: in vitro ADME, mouse
[4] = type: in vitro ADME, mouse; remark: listed apart in the source
[5] = test system: iniBAC promoter (PiniB-LUX strain); type: cell-based, Mycobacterium tuberculosis
[6] = test system: Pks13 hypomorph strain; type: cell-based, Mycobacterium tuberculosis
[7] = test system: MmpL3, DprE1, InhA, FadD32, Kas A hypomorph strains; type: cell-based, Mycobacterium tuberculosis
[8] = type: in vitro ADME, human
Procedure: Non-Chemistry supplementary methods
Test compound (10 µM) was incubated with 0.5 mg/mL Human Liver Microsomes (Mixed Gender, Life Technologies) in 50 mM potassium phosphate buffer, pH7.4 in the presence of either NADPH (8mg/mL), glutathione or NADPH plus glutathione. Reactions are started by addition of 5 µL of 1 mM test compound (final concentration 10 µM, 1% solvent). Immediately, an aliquot (100 µL) of the incubation mixture was removed and mixed with acetonitrile (200 µL) to stop the reaction. A further 100 uL aliquot is removed at 90 minutes. After addition of 100 µL of water, the samples were centrifuged to sediment precipitated protein and the plates then sealed prior to analysis using a Xevo QTof Quadrupole Time-of-Flight Mass Spectrometer (Waters corporation, USA). Detection of metabolites is performed by analysis with MetabolynxXS and by manual data searching. Elemental composition of the parent ion and MS/MS analysis is used to determine the nature of the GSH adduct.
Incubations with Clozapine were performed to provide a positive control.
Met ID in human liver microsomes […]
Analysis was performed on a Waters Acquity H-Class UHPLC system equipped with a photodiode array detector and Waters Xevo Q-ToF high resolution mass spectrometer. […] After the UV detector the mobile phase flow was analysed using the QToF mass spectrometer. […]

[9] = test system: HepG2 cells; test: HepG2 cytotoxicity
From the text: Assays to establish HepG2 cytotoxicity, in vitro microsomal/hepatocyte metabolic stability, aqueous kinetic solubility, and in vivo pharmacokinetic profiles were all performed as previously described.[15],[35]−[37]

[10] = pH 7.4
[11] = test system: M. tuberculosis H37Rv; type: in vivo; settings: C57BL/6J mice, oral dosing for 8 days from day 1 post-infection, qPCR
[12] = test system: M. tuberculosis H37Rv; type: cell-based, Mycobacterium tuberculosis
[13] = test system: H37Rv growing inside J774 macrophages; test: Intramacrophage efficacy; type: cell-based, Mycobacterium tuberculosis; settings: 7 days of treatment
[14] = after 90 min, human liver microsomes, glutathione/NADPH
[15] = mouse, in vivo
[16] = efficacy experiment at 20 times the oral PK dose
[17] = in vivo; settings: C57BL/6J, mouse, po
[18] = physchem; settings: pH 7.4
[19] = in vitro; settings: plasma
[20] = kinetic solubility in water, read-out: Kin. Sol
[21] = intrinsic clearance (Cli), CD1 mouse liver microsomes, Tables 1-4
[22] = intrinsic clearance (Cli), mouse hepatocytes, Tables 1-4
[23] = Homo sapiens, HepG2, read-out: HepG2 inhibitory concentration (IC50)

CN(C)c1ncnc2sc(-c3c(F)c(F)c(F)c(F)c3F)nc12.Cl [Compound 1, CN(C)c1ncnc2sc(nc12)-c1c(c(c(c(c1F)F)F)F)F]
MIC ([1]; Mycobacterium tuberculosis, H37RV, read-out: H37Rv MIC A): 0.12 µM | MIC ([1]; Mycobacterium tuberculosis, H37RV, read-out: H37Rv MIC B): 0.61 µM | MIC ([1]; Mycobacterium tuberculosis, H37RV, read-out: Wk2_7H9/DPPC/ casitone/ Tyloxapol MIC): 0.124 µM | MIC ([1]; Mycobacterium tuberculosis, H37RV, read-out: Wk2_ 7H9/DPPC/ cholesterol/BSA/ Tyloxapol MIC): 0.6 µM | MIC ([1]; Mycobacterium tuberculosis, H37RV, read-out: Wk2_7H9/glucose/ BSA/Tyloxapol MIC): 0.5 µM | MIC ([1]; Mycobacterium tuberculosis, H37RV, read-out: Wk2_7H9/glucose/ casitone/ Tyloxapol MIC): 0.1 µM | solubility kinetic [2, 20]: 1.9 µM | solubility kinetic ([2]; pH 7.4, aqueous buffer, kinetic from dmso stock, pH7.4, read-out: Kinetic Solubility pH7.4): 1.9 µM | Mouse micro Cl [3, 21]: >50 mLmin/g | Microsomal Cli ([3]; supplement data table): >50 mL/min/g | Mouse Heps Cl [4, 22]: >50 mLmin/g | Hepatocyte Cli ([4]; supplement data table): >50 mL/min/g | PiniB-LUX luminescent signal [5]: strong luminescent signal | shift in IC50 between the ± atc conditions [6]: ~10 fold | change in potency on partial depletion of InhA, FadD32 or Kas A [7]: did not increase in potency | inhibition of MmpL3 or DprE1 suggested by hypomorph strains [7]: not inhibiting MmpL3 or DprE1 | formation of the GSH adduct [8]: clear evidence of a significant peak corresponding to the formation of the GSH adduct | IC50 [9, 23]: > 100 µM

COC(=O)c1nn(c(c1NC(=O)c1c(c(c(c(c1F)F)F)F)F)C)C [Compound 20]
MIC ([1]; read-out: H37Rv MIC A): >50 µM | MIC ([1]; read-out: H37Rv MIC B): >50 µM | MIC ([1]; read-out: Wk2_7H9/DPPC/ casitone/ Tyloxapol MIC): >50 µM | MIC ([1]; read-out: Wk2_ 7H9/DPPC/ cholesterol/BSA/ Tyloxapol MIC): >50 µM | MIC ([1]; read-out: Wk2_7H9/glucose/ BSA/Tyloxapol MIC): >50 µM | MIC ([1]; read-out: Wk2_7H9/glucose/ casitone/ Tyloxapol MIC): >50 µM | solubility kinetic [2, 20]: 229 µM | solubility kinetic ([2]; pH 7.4, read-out: Kinetic Solubility pH7.4): 229 µM | Mouse micro Cl [3, 21]: 1.4 mLmin/g | Microsomal Cli ([3]; supplement data table): 1.4 mL/min/g | Mouse Heps Cl [4, 22]: 15.2 mLmin/g | Hepatocyte Cli ([4]; supplement data table): 15 mL/min/g | CHI LogD [10]: 2.0 | IC50 ([9]; read-out: HepG2 inhibitory concentration (IC50), growth of HepG2 cells): > 100 µM

Cc1noc(-c2nc(C)oc2NC(=O)c2c(F)c(F)c(F)c(F)c2F)n1 [Compound 43, Cc1noc(n1)-c1nc(oc1NC(=O)c1c(c(c(c(c1F)F)F)F)F)C]
MIC ([1]; Mycobacterium tuberculosis, H37RV; read-out: H37Rv MIC A): 0.8 µM (≈ 0.299 µg/mL) | MIC ([1]; Mycobacterium tuberculosis, H37RV; read-out: H37Rv MIC B): 1.8 µM (≈ 0.674 µg/mL) | MIC ([1]; Mycobacterium tuberculosis, H37RV; read-out: Wk2_7H9/DPPC/ casitone/ Tyloxapol MIC): 0.8 µM (≈ 0.299 µg/mL) | MIC ([1]; Mycobacterium tuberculosis, H37RV; read-out: Wk2_ 7H9/DPPC/ cholesterol/BSA/ Tyloxapol MIC): 1.8 µM (≈ 0.674 µg/mL) | MIC ([1]; Mycobacterium tuberculosis, H37RV; read-out: Wk2_7H9/glucose/ BSA/Tyloxapol MIC): 1.8 µM (≈ 0.674 µg/mL) | MIC ([1]; Mycobacterium tuberculosis, H37RV; read-out: Wk2_7H9/glucose/ casitone/ Tyloxapol MIC): 0.7 µM (≈ 0.262 µg/mL) | solubility kinetic ([2]; pH 7.4, aqueous buffer, kinetic from dmso stock): 196 µM (≈ 73.3 µg/mL) | solubility kinetic ([2]; read-out: Kin. Sol): 196 µM (≈ 73.3 µg/mL) | Microsomal Cli ([3]; CD1, mouse): <0.5 mL/min/g | Mouse micro Cl ([3]; mouse, microsomes): <0.5 mL/min/g | Hepatocyte Cli ([4]; mouse): 3.4 mL/min/g | Mouse Heps Cl ([4]; mouse, hepatocytes): 3.4 mL/min/g | reduction in bacterial DNA in lungs compared to the untreated control [11]: no reduction in DNA levels | CFU reduction relative to input bacterial counts ([12]; treatment for 3 days): ~1 log units | CFU reduction relative to input bacterial counts ([12]; treatment for 7 days): ~2 log units | concentration required to exert a cidal effect [13]: 10 µM | parental material remaining [14]: 57% | bioavailability [15]: very good | clearance [15]: very good | half-life [15]: moderate | volume of distribution [15]: limited | increase of Cmax in the animal efficacy study versus oral PK study [16]: < 3 fold | AUC(0-t) [17]: 167 µg·h/mL | Cmax [17]: 30000 ng/mL | chromatographic logD [18]: 1.2 | fraction unbound [19]: 0.03 | IC50 [9, 23]: > 100 µM
